One block for each molecule: values may come before it.
Key:
[1] = test system: Wnt signaling target genes in human iPS cells; experiment: Gene expression analysis by DNA array and quantitative polymerase chain reaction; format: cell-based; settings: FIG. 9
Experimental: (in the order of the genes whose expression were reduced most 12 hours later) HOXA1, MSGN1, NKD1, T, TNFRSF11B, DKK1, DKK4, CDX2, MSX1, NODAL, FGF4, PAPPA, PRRX1, LRAT, CYP1B1, SLC34A2, AXIN2, LGL1, SPS, MIXL1, APCDD1 and DSEL. […] The analyzed genes were as follows: MSGN1, HOXA1; T, MIXL1; Dkk1, AXIN2; NODAL and FGF4 (all known as Wnt signaling target genes).

Monkey ES cells = experiment: Cardiac muscle cell differentiation of monkey ES cells, 6-well plate, GFP expression observed at day 14; format: cell-based; settings: GFP at day 14; for increase in the GFP expression level: 10 μM during day 4 to 10
Text: In the same manner as Example 2, the effects of promoting cardiac muscle cell differentiation were compared among KY02111 and N11474, known Wnt signaling inhibitors (IWP2, XAV939 and IWR1), proteins known to be effective in promoting cardiac muscle cell differentiation (G-CSF, IGFBP4, Dkk1 and cytokines (a mixture of bFGF, BMP4, VEGF, DKK1 and Activin A)).
The effect of BIO, a Wnt signaling activator, on the effect of promoting cardiac muscle cell differentiation of KY02111, XAV939 and IWP2 was analyzed. […]

[2] = test system: monkey ES cell line (CMK 6.4 cynomolgus monkey ES cells); experiment: Screening of library compounds: GFP expression under alpha-MHC promoter, 96-well plates; format: cell-based; settings: about 1 to 5 μM compound/well during day 6 to 14; HCS system
Experimental: A vector expressing green fluorescent protein (GFP) under control of promoter of α-MHC gene, a marker of cardiac muscle cell differentiation, was introduced into monkey ES cell line (CMK 6.4 cynomolgus monkey ES cells) and the cells were seeded on 96-well culture plates (Greiner/655090: 96 well FIA black plate) in 5.0×10^3 cells/well, and cultured for 14 days in an IMDM-based differentiation medium for cardiac muscle cells (200 ml. IMDM (Sigma 13390) containing 50 ml bovine fetal serum (GIBCO 10099-141), 2.5 ml MEM non-essential amino acid solution (Sigma M7145), 2.5 ml penicillin-streptomycin (GIBCO 15140), 2.5 ml 200 mM L-glutamine, 2 μl 2-mercaptoethanol (Sigma M7522), 255 μl 5N NaOH). During day 6 to 14 of culture, 9,600 library compounds were added into separate wells (about 1 to 5 μM compound/well). Then, at […] of culture, GFP expression level was determined by using HCS (high contents screening) system (Molecular device/MetaMorph imaging system).

[3] = test system: Human ES cell line (Kh-1 line); experiment: Cardiac muscle cell differentiation (GFP expression level, number of beating colonies); format: cell-based; settings: N11474 10 μM during day 4 to 14
Experimental: The effect of promoting differentiation of each of the ES/iPS cells into cardiac muscle cells were confirmed for N11474 and KY02111 with the GFP expression level and number of beating colonies used as the indicators. Human ES cell line (Kh-1 line) (Suemori, H., et al., Efficient establishment of human embryonic stem cell lines and long-term maintenance with stable karyotype by enzymatic bulk passage. Biochem Biophys Res Commun. 345(3), 926-32 (2006)) (incorporated herein by reference) was seeded in a 6-well plate (Asahi Glass/5816-006: Ezview culture plate) in 1.2×10^6 cells/well and cultured for 22 days, with BMP4 (10 ng/ml) added during day 0 to 4 of culture and N11474 (10 μM) or KY02111 (5 μM) added during day 4 to 14 of culture. Human iPS cell lines (253G1, IMR90-1, IMR90-4 and RCHIPC0003) (Takahashi, K., et al., Induction of pluripotent stem cells from adult human fibroblasts by defined factors. Cell. 131(5), 861-72 (2007); Yu, J., et al., Induced pluripotent stem cell lines derived from human somatic cells. Science. 318(5858), 1917-20 (2007)) (these references are herein incorporated by reference) were cultured for the cardiac muscle cell differentiation in the same manner as for the human ES cells. […] KY02111 (5 μM) was added for 3 days during day 6 to 9 of cardiac muscle cell differentiation culture and the beating colonies of cardiac muscle cells were analyzed at day 9. […]

Human iPS (IMR90-4) = experiment: Number of beating colonies of cardiac muscle cells; format: cell-based; settings: N11474 10 μM during day 4 to 14
Experimental: The effect of promoting differentiation of each of the ES/iPS cells into cardiac muscle cells were confirmed for N11474 and KY02111 with the GFP expression level and number of beating colonies used as the indicators. Human ES cell line (Kh-1 line) (Suemori, H., et al., Efficient establishment of human embryonic stem cell lines and long-term maintenance with stable karyotype by enzymatic bulk passage. Biochem Biophys Res Commun. 345(3), 926-32 (2006)) (incorporated herein by reference) was seeded in a 6-well plate (Asahi Glass/5816-006: Ezview culture plate) in 1.2×10^6 cells/well and cultured for 22 days, with BMP4 (10 ng/ml) added during day 0 to 4 of culture and N11474 (10 μM) or KY02111 (5 μM) added during day 4 to 14 of culture. Human iPS cell lines (253G1, IMR90-1, IMR90-4 and RCHIPC0003) (Takahashi, K., et al., Induction of pluripotent stem cells from adult human fibroblasts by defined factors. Cell. 131(5), 861-72 (2007); Yu, J., et al., Induced pluripotent stem cell lines derived from human somatic cells. Science. 318(5858), 1917-20 (2007)) (these references are herein incorporated by reference) were cultured for the cardiac muscle cell differentiation in the same manner as for the human ES cells. The cardiac muscle cells from mouse ES cells (R1) were differentiated in accordance with the method described in the reference (Transient inhibition of BMP signaling by Noggin induces cardiomyocyte differentiation of mouse embryonic stem cells. Yuasa S, et al. Nat. Biotechnol. 2005 May; 23(5): 607-11; incorporated herein by reference). KY02111 (5 μM) was added for 3 days during day 6 to 9 of cardiac muscle cell differentiation culture and the beating colonies of cardiac muscle cells were analyzed at day 9. Monkey ES cells (CMK6.4) were cultured for cardiac muscle cell differentiation in the same manner as in the above (2).

[4] = test system: monkey ES cells (CMK 6.4 cynomolgus monkey ES cell line); experiment: Cardiac muscle cell differentiation of monkey ES cells, compound day 4 to 8, GFP fluorescence at day 10 (MetaMorph); format: cell-based
Text: Compounds substituted at the position R7 of Formula 1, which corresponds to Cl of KY02111, were synthesized and examined for the effect of promoting cardiac muscle cell differentiation in a dose-dependent manner in monkey ES cells as described in Example 2. Specifically, a vector expressing green fluorescent protein (GFP) under control of promoter of α-MHC gene, a marker of cardiac muscle cell differentiation, was introduced into monkey ES cells (CMK 6.4 cynomolgus monkey ES cell line) and the cells were seeded on 6-well culture plates (Asahi Glass/5816-006: Ezview culture plate) in 4.0×10^5 cells/well, and cultured in an IMDM-based differentiation medium for cardiac muscle cells (200 ml IMDM (Sigma) containing 50 ml bovine fetal serum (GIBCO), 2.5 ml MEM non-essential amino acid solution (Sigma), 2.5 ml penicillin-streptomycin (GIBCO), 2.5 ml 200 mM L-glutamine, 2 μl 2-mercaptoethanol). Each compound was added to the cells during day 4 to day 8 of the cardiac muscle cell differentiation culture, and the GFP fluorescence was analyzed at day 10 by using MetaMorph imaging system.

human ES cells (KhES-3) = experiment: Percentage of cardiac muscle cells by flow cytometry with cardiac troponin T (cTnT) antibody; format: cell-based; settings: 2 μM during days 3-8; 3 μM CHIR99021 first two days; without compound 17.9%
Experimental: (§1) The effect of promoting cardiac muscle cell differentiation of SO2031 (KY02-I) was confirmed using human ES cells (KhES-3) and iPS cells (IMR90-1) (FIG. 19). Induction of cardiac muscle cell differentiation was performed as described previously (Cell Reports, Volume 2, Issue 5, 1448-1460, 25 Oct. 2012). Specifically, IMDM (Sigma) containing 1% MEM non-essential amino acid solution (Sigma), 1% penicillin-streptomycin (Gibco), 2 mM L-glutamine (Sigma), 0.5 mM L-carnitine (Sigma), 0.001% 2-mercaptoethanol (Gibco), and 0.4% human serum albumin (Sigma) was used for culture. Cardiac muscle cell differentiation was induced in Ultra-low attachment culture dish (Corning) by floating culture. During the first two days, 3 μM CHIR99021, a WNT activator, was added, and during days 3-8 of culture, 2 μM SO2031 (KY02-I) was added. Efficiency of cardiac muscle cell differentiation was determined by calculating the percentage of cardiac muscle cells by flow cytometry using an antibody for cardiac troponin T (cTnT), a cardiac-specific marker molecule.

[5] = test system: human iPS cells (IMR90-1); experiment: as above; format: cell-based; settings: 2 μM during days 3-8; 3 μM CHIR99021 first two days; without compound 3.7%
Experimental: as §1

[6] = Solubility in medium (observation of crystals); format: physicochemical; settings: after 24 hours
Experimental: SO2031 (KY02-I) was dissolved in 20% serum-containing medium (200 ml IMDM (Sigma) containing 50 ml bovine fetal serum (GIBCO), 2.5 ml MEM non-essential amino acid solution (Sigma), 2.5 ml penicillin-streptomycin (GIBCO), 2.5 ml 200 mM L-glutamine, 2 μl 2-mercaptoethanol) at 20 μM, and in serum-free medium (200 ml IMDM (Sigma) containing 2.5 ml MEM non-essential amino acid solution (Sigma), 2.5 ml penicillin-streptomycin (GIBCO), 2.5 ml 200 mM L-glutamine, 2 μl 2-mercaptoethanol) at 3 or 20 μM and observed after 24 hours (FIG. 20). […] As the compound is not crystallized, the concentration of the compound in the medium is stably maintained. Also, there is no possibility that the crystals affect the cells, and there is no risk that the crystals remained in the cells are transferred to and affect the host at transplantation.

SMILES: O=C1Nc2cc(Br)ccc2/C1=C1/Nc2ccccc2/C1=N\O [BIO, reference compound]
expressions of MSGN1, HOXA1, T, MIXL1, Dkk1, AXIN2, NODAL and FGF4 (Wnt signaling target genes) by qPCR [1]: increased

SMILES: Cc1ccc2nc(NC(=O)CSc3nc4c(c(=O)n3-c3ccccc3)SCC4)sc2c1 [IWP2, reference compound]
effect of BIO on the compound's effect of cardiac muscle cell differentiation (GFP expression) (Monkey ES cells; BIO 5 μM added together with the compound during day 4 to 10): inhibited
expressions of MSGN1, HOXA1, T, MIXL1, Dkk1, AXIN2, NODAL and FGF4 (Wnt signaling target genes) by qPCR [1]: reduced

SMILES: COc1ccc(CCC(=O)Nc2nc3ccc([N+](=O)[O-])cc3s2)cc1OC [KY01042, 2-(3-(3,4-dimethoxyphenyl)propanamide)-6-nitrobenzothiazole]
increase in the GFP expression level (Monkey ES cells): 7000%

SMILES: COc1ccc2nc(NC(=O)Cc3ccc(OC)c(OC)c3)sc2c1 [N11474]
GFP expression level [2]: high GFP expression levels
increase in the GFP expression level (Monkey ES cells): 1000%
Beating cardiac muscle cell differentiation efficiency (Control (DMSO) = 100%) ([3]; Human ES (Kh-1)): 1100% (N11474)
GFP expression level ([3]; at day 14 and after of culture, FIG. 6): significant increase
Beating cardiac muscle cell differentiation efficiency (Control (DMSO) = 100%) (Human iPS (IMR90-4)): 4000% (N11474)

crystals in medium ([6]; 20% serum-containing medium at 20 μM, serum-free medium at 3 or 20 μM): Large crystals were not observed
crystals in medium ([6]; serum-free medium, 3 μM): almost no crystal was observed
SMILES: COc1ccc(CCC(=O)Nc2nc3ccc(I)cc3s2)cc1OC [SO2031, 2-(3-(3,4-dimethoxyphenyl)propanamid)-6-iodobenzothiazole]
effect of promoting cardiac muscle cell differentiation, times higher than that of KY02111 ([4]; 0.1 μM): about 16 times
effect of promoting cardiac muscle cell differentiation, times higher than that of SO087 ([4]; 0.1 μM): about 5.2 times
effect of promoting cardiac muscle cell differentiation, SO2031 versus SO3042 ([4]; 0.1 μM, 0.4 μM and 2 μM, separate experiment, FIG. 17): comparable effect
effect of promoting cardiac muscle cell differentiation, times higher than that of KY02111 ([4]; 1 μM): ~6.3 times
effect of promoting cardiac muscle cell differentiation, times higher than that of SO087 ([4]; 1 μM): ~2 times
effect of promoting cardiac muscle cell differentiation, times higher than that of KY02111 ([4]; 10 μM): ~2.1 times
effect of promoting cardiac muscle cell differentiation, times higher than that of SO087 ([4]; 10 μM): ~1.6 times
effect of promoting cardiac muscle cell differentiation, times higher than that of KY02111 ([4]; 30 μM): ~1.5 times
effect of promoting cardiac muscle cell differentiation, times higher than that of SO087 ([4]; 30 μM): ~1.1 times
effect of promoting cardiac muscle cell differentiation, carbon chain length (n) series ([4]; FIG. 16): higher effect compared to KY02111
effect compared to SO3031 (KY01-I) ([4]; low dose (0.1 μM)): 2.7 times
ratio of cardiac muscle cells (cTnT) (human ES cells (KhES-3)): 77.9%
ratio of cardiac muscle cells (cTnT) [5]: 56.8%

Source: patent publication US9499790B2, “Method for promoting differentiation of pluripotent stem cells into cardiac muscle cells” (Kyoto University, priority 2010, dated 2016)
